Peptide text beside a SMILES is read from it. * marks the point of attachment. Tos = Cc1ccc(S(=O)(=O)*)cc1; CH2Cl = ClC*
Columns and labels:
[1] = test system: thrombin; experiment: Thrombin time test; type: biochemical; conditions: for TT: without conjugate 13.4; for Potency score in TT test: most potent (1) to least potent (5)
[2] = test system: blood coagulation (aPTT); experiment: Activated partial thromboplastin time test; type: biochemical; conditions: for aPTT: without conjugate 30.5; for Potency score in aPTT test: most potent (1) to least potent (5)
[3] = test system: blood coagulation (prothrombin time); experiment: Prothrombin time test; type: biochemical; conditions: for PT: without conjugate 11.5; for Potency score in PT test: most potent (1) to least potent (5)
[4] = test system: rat Glioblastoma multiforme (GBM) tumor; experiment: Tumor size, edema and survival in GBM animal model; type: in vivo; conditions: for change in edema surrounding the tumor: 1 μl/h for 7 days; for change in tumor size: 1 μl/h for 7 days intratumoral, MRI, grade 1 and 2 tumors; for rats with severe initial tumors surviving to the second MRI: none of 3 in controls
Procedure: Cells (0.5×10^6 cells) from a highly malignant cell line of rat Glioblastoma multiforme (GBM) were injected by stereotactic methods into the parietal cortex of rats. Five (5) days later the brain of these rats were examined by MM and the tumors scored on a scale of 1-3 (1-small size tumor, 2-middle size tumor, 3-large size tumor) and for ventricular localization of the tumor. A catheter was placed in the brain tumor and attached to an osmotic pump (Alzet) releasing 1 μl/h for 7 days of one of the following three (3) treatments: saline (n=13), 6AA 2 μM (n=14) and 6AA 20 μM (n=14).
In order to account for the unequal distribution of initial tumor size, tumor and edema analyses were performed on rats with grade 1 and 2 tumors in the initial Mill (n=7, 6 and 5 for the saline, low and high treatment groups, respectively).
Survival was registered daily (FIG. 21).

[5] = target: Protein C (Homo sapiens, UniProt P04070); experiment: Protein C activity test; type: biochemical; conditions: for aPC: without conjugate 109; for Potency score in Protein C activity test: most potent (1) to least potent (5)
[6] = test system: Factor Xa; experiment: Factor Xa activity test; type: biochemical; conditions: 100 μM; for Potency score in Factor Xa activity test: most potent (1) to least potent (5); for Fxa: without conjugate 0.11
[7] = in vivo; conditions: ip, 2 micromolar, in 100 ul
Procedure: The concentrations of the peptide conjugates in the plasma of animals treated therewith was evaluated by a unique method that was based on the ability of the peptide conjugates to inhibit thrombin activity. […] The essay initiated by obtaining blood samples from animals which received the peptide conjugates (100 microliter containing 2 micromolar, i.p.). The blood samples, after being maintained in citrate buffered sample tubes, were subjected to centrifugation for plasma separation. Samples were then filtered through a membrane with a 10 kD molecular weight cutoff which excluded all blood coagulation factors (by addition of calcium to neutralize the anticoagulation effect of the citrate buffer). Coagulation factor-free plasma samples were then applied to the thrombin activity assay.
The resulting thrombin activities in each plasma sample either diluted (×10) or as is were given in arbitrary units (FIGS. 18-18D, diagonal shading and dotted bars, respectively). However, the actual concentration were deduced by comparing the activities to calibrated activities generated with known concentrations of the conjugate peptides. The calibration data included the following thrombin activities: activity in a sample of thrombin in the absence of plasma and conjugates (black bars, FIGS. 18A-18D); and activity in four samples of thrombin and known concentrations of the peptide conjugates (10 nM, 100 nM, 1 micromolar and 10 micromolar; bars 2nd to 5th from right in FIGS. 18A-18D).

[8] = test system: CNS-1 glioma cells; experiment: Proliferation (XTT) of CNS-1 glioma cells; type: cell-based, rat; conditions: CNS-1 cells
Procedure: Several peptide moieties (Table 1) according to the present invention were synthesized. Proliferation was measured, by means of XTT, in C6 and CNS-1 glioma cell-lines (FIGS. 8A and 8B, respectively). In C6 cells, proliferation was measured before (black bar) and after cells were treated with the PAR-1 antagonist SCH79797 at various doses ranging from 10 nM to 10 μM (grey bars; FIG. 8A).
In another set of experiments, CNS-1 glioma cell-line was treated with increased doses of TLCK (125 nM to 14 mM), for 48 hours (FIG. 9; grey bars). Proliferation was measured by means of XTT in comparison to non-treated cells (control; black bar).
Initially, CNS-1 glioma cells were treated with increased concentrations of two peptide conjugates: a short conjugate of the formula tosyl-DPR-CK (comprising 3 amino acids, 3AA) or a long conjugate of the formula tosyl-NATLDPR-CK (comprising 7 amino acids, 7AA; SEQ ID NO: 4) in concentrations of 100 pM, 1 nM and 10 nM, for 48 hours (FIG. 10). FIG. 10 provides the results of an XTT assay used for assessing cell proliferation.
The effect of the peptide conjugate alone, or in combination with PAR-1 antagonist, SCH79797, on cell proliferation was determined in comparison to untreated cells or cells treated with PAR-1 antagonist (FIG. 13).

[9] = test system: CNS-1 glioma cells
Procedure: The thrombin-like activity of CNS-1 cells was initially measured in control cells and in cells treated with (i) the short peptide conjugate (tosyl-DPR-CK, corresponding to a conjugate that includes the peptide termed 3AA) or (ii) the long conjugate (tosyl-NATLDPR-CK, corresponding to a conjugate that includes the peptide termed 7AA (SEQ ID No. 4)) at high ([…]) and low (100 nM) concentrations (FIG. 16).

[10] = test system: STZ-induced diabetic rats; experiment: Electrophysiological tests in STZ-induced diabetic rats treated with thrombin inhibitors; type: in vivo, rat
Procedure: (§1) Electrophysiological tests of the sciatic nerves were performed on day 32 PI (post-immunization/induction) in EAN model (FIGS. 3A-C) and 8 weeks after STZ induction (FIG. 4A-C). Rats were anesthetized with Phenobarbital (IP, 24 mg/kg). Two pairs of monopolar needle electrodes were used to stimulate the tail nerves. Stimulating cathodes were inserted to a depth of 4-5 mm at the base of the tail and 4 cm distally. An anode at each location was inserted into the skin (4-5 mm depth) 1 cm proximal to the cathode. A ground electrode was placed between the distal stimulating electrode and the active recording electrode. Electromyography (EMG) recordings of responses of the tail muscles to proximal and distal stimuli, made by a pair of ring electrodes coated with electrode jelly and placed 1 cm distally to the distal stimulating electrode, were collected. The tail skin was wiped with alcohol prior to placing the electrodes. […] Both proximal and distal latencies were measured using time intervals from the stimulus artifact to the first deflection from baseline. To calculate the motor nerve conduction velocity (MNCV), the distance between stimulating cathodes was divided by the latency difference. Amplitudes of the compound muscle action potential (CMAP) from both proximal and distal stimulations were measured from the negative to the positive peaks. The reduction of the proximal CMAP compared with that of the distal CMAP was calculated by the equation: [(distal CMAP-proximal CMAP)/distalCMAP×100] and was defined as the R ratio. Temperature differences were minimized by conducting the study as soon as the anesthesia had taken effect and by warming the tail with a heating lamp.
(§2) FIGS. 3 and 4 each include 3 graphs summarizing the results from electrophysiological tests of treated rats, as follows: distal latency (3A, 4A) referring to the time, in milliseconds, between distal stimulation to recording; conduction velocity (3B, 4B) referring to the distance over time, in meters/seconds; and amplitude (3C, 4C) referring to the size of the response as measured in millivolts.

[11] = test system: EAN rats (experimental autoimmune neuritis); experiment: Electrophysiological tests in EAN rats treated with thrombin inhibitors; type: in vivo, rat
Procedure: as §1, §2

Sequence of Protein C (P04070 212-461 limits assumed): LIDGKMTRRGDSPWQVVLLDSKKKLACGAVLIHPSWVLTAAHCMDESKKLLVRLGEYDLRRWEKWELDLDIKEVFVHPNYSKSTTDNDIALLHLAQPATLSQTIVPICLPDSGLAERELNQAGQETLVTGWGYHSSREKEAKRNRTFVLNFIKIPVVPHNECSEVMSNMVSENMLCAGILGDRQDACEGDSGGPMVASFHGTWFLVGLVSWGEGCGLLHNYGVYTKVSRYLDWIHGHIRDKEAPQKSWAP
Sequence of Protein C (P04070 43-197 partner limits assumed): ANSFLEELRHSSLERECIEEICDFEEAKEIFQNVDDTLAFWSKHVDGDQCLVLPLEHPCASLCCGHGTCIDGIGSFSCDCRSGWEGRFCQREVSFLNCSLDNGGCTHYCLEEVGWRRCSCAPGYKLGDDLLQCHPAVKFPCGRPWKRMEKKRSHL

Row | TT ([1]; 10 nM) [s] | Potency score in TT test ([1]; 1 μM) | TT ([1]; 1 μM) [s] | TT ([1]; 100 μM) [s] | aPTT ([2]; 10 nM) [s] | aPTT ([2]; 1 μM) [s] | Potency score in aPTT test ([2]; 100 μM) | aPTT ([2]; 100 μM) [s] | PT ([3]; 10 nM) [s] | PT ([3]; 1 μM) [s] | Potency score in PT test ([3]; 100 μM) | PT ([3]; 100 μM) [s] | Compound | aPC ([5]; 1 μM) | Potency score in Protein C activity test ([5]; 100 μM) | aPC ([5]; 100 μM) | Potency score in Factor Xa activity test [6] | Fxa [6] | level at time molar [7] [nM] | inhibition of cell proliferation ([8]; 48 hours, 10 μM, p<0.05) | further results
1 | 13.5 | 5 | 14.6 | > 80 | 30.8 | 30.9 | 5 | 42.6 | 11.5 | 11.4 | 5 | 12.7 | Cc1ccc(S(=O)(=O)N[C@@H](CC(C)C)C(=O)N[C@@H](CC(=O)O)C(=O)N2CCC[C@H]2C(=O)N[C@@H](CCCNC(=N)N)C(=O)CCl)cc1 [4AA, tosyl-LDPR-CK] (Tos-LDPR-CH2Cl) |  |  |  |  |  |  |  | 
2 | 13.5 | 2 | 24.1 | > 80 | 29.9 | 30.7 | 2 | 85.2 | 11.5 | 11.2 | 2 | 17.4 | Cc1ccc(S(=O)(=O)N[C@@H](CC(N)=O)C(=O)N[C@@H](C)C(=O)N[C@H](C(=O)N[C@@H](CC(C)C)C(=O)N[C@@H](CC(=O)O)C(=O)N2CCC[C@H]2C(=O)N[C@@H](CCCNC(=N)N)C(=O)CCl)[C@@H](C)O)cc1 [7AA, tosyl-NATLDPR-CK] (Tos-NATLDPR-CH2Cl) | 110 | 4 | 25 | 2 | 0.43 | ~10 | Significant inhibition | IC50 [9]: 0.01 nM; inhibition of cell proliferation ([8]; XTT, 48 hours, 10 nM): significant inhibition; inhibition of cell proliferation, in combination with PAR-1 antagonist ([8]; XTT, PAR-1 antagonist 1 μM, compared to untreated cells and to PAR-1 antagonist alone): greater inhibition on cell proliferation; inhibition of cell proliferation, applied alone ([8]; XTT, compared to untreated cells and to PAR-1 antagonist alone): greater inhibition on cell proliferation
3 |  |  |  |  |  |  |  |  |  |  |  |  | N alpha-tosyl-L-lysine chloromethyl ketone [TLCK] |  |  |  |  |  |  |  | conduction velocity ([10]; STZ rats, daily treatment for 2 weeks, TLCK 4.4 mg/kg, NAPAP 120 μM/kg, untreated STZ 28.5±2.8): 41.95±3.9 m/sec; proximal amplitude ([10]; STZ rats, untreated STZ 0.48±0.13, insignificant): 1.81±0.8 millivolts; latency ([10]; STZ rats, untreated STZ 1.93±0.139, control 1.29±0.057): 1.44 ± 0.04 ms; internal bleeding ([10]; animals treated with thrombin inhibitors): caused severe internal bleeding; concentration at which glioma-cell proliferation decreased ([8]; 48 hours): higher than 1 μM; proliferation-inhibition ([8]; 48 hours, 1 μM to 125 nM): No significant proliferation-inhibition; proliferation / cell death ([8]; 48 hours, 6.7 mM and 14 mM): caused cell death; proliferation-inhibition ([8]; 48 hours, 8-33 μM): significant proliferation-inhibition; proliferation, administered alone ([8]; XTT, 1 μM): did not inhibit proliferation; proliferation-inhibition, combined treatment with the PAR-1 antagonist ([8]; compared with PAR-1 antagonist (1 μM) alone): significantly increased said inhibitory effect; conduction velocity ([11]; daily treatment for 2 weeks, TLCK 4.4 mg/kg, NAPAP 120 μM/kg, untreated EAN 23.6±1.2): 40.55±6.7 m/sec; proximal amplitude ([11]; untreated EAN 0.76±0.33, non-significant): 1.36±0.49 millivolts; latency ([11]; untreated EAN 1.43±0.023, control 0.54±0.03): 1.28 ± 0.18 ms

Row | Compound | TT ([1]; 10 nM) [s] | Potency score in TT test ([1]; 1 μM) | TT ([1]; 1 μM) [s] | TT ([1]; 100 μM) [s] | aPTT ([2]; 10 nM) [s] | aPTT ([2]; 1 μM) [s] | Potency score in aPTT test ([2]; 100 μM) | aPTT ([2]; 100 μM) [s] | PT ([3]; 10 nM) [s] | PT ([3]; 1 μM) [s] | Potency score in PT test ([3]; 100 μM) | PT ([3]; 100 μM) [s] | aPC ([5]; 1 μM) | Potency score in Protein C activity test ([5]; 100 μM) | aPC ([5]; 100 μM) | Potency score in Factor Xa activity test [6] | Fxa [6] | level at time molar [7] [nM] | inhibition of cell proliferation ([8]; 48 hours, 10 μM, p<0.05) | further results
4 | Cc1ccc(S(=O)(=O)N[C@@H](C)C(=O)N[C@H](C(=O)N[C@@H](CC(C)C)C(=O)N[C@@H](CC(=O)O)C(=O)N2CCC[C@H]2C(=O)N[C@@H](CCCNC(=N)N)C(=O)CCl)[C@@H](C)O)cc1 [6AA, tosyl-ATLDPR-CK] (Tos-ATLDPR-CH2Cl) | 13.9 | 3 | 18.5 | > 80 | 30 | 30.6 | 3 | 67.6 | 11.5 | 11.4 | 3 | 16.5 | 108 | 2 | 11 | 3 | 0.36 | < 10 | Significant inhibition | change in edema surrounding the tumor ([4]; 2 μM): reduction in the edema; change in tumor size ([4]; 2 μM): A similar trend was observed; rats with severe initial tumors surviving to the second MRI ([4]; 2 μM): 1 out of 3; change in edema surrounding the tumor ([4]; 20 μM): reduction in the edema; change in tumor size ([4]; 20 μM, p=0.030): reduced tumor size to half of the original size; survival ([4]; 20 μM, registered daily): clear trend to increased survival; rats with severe initial tumors surviving to the second MRI ([4]; 20 μM): all 3; proliferation compared to controls ([8]; 72 hours, all tested concentrations, p<0.05): significantly lower proliferation
